This note sets out measurements from patent publication US12643887B2, “Heterocyclic derivatives with cardiomyocyte proliferation activity for treatment of heart diseases” (Tongji University, priority 2019, dated 2026).

Read-outs that look alike come from different tables or passages of the source.

One assay concerns the target T1, human GSK3 beta (Homo sapiens, UniProt P49841).
T1 construct: Recombinant full-length human GSK3 beta (expressed in Sf9 insect cells with an N-terminal His tag); His (N); purchased SignalChem G09-10H; host or cells: Sf9 insect cells
Put plainly: GSK3 beta enzyme assay (ADP-Glo). It counts as biochemical. The settings on record: ATP 25 μM, read-out: GSK3b IC50. In outline:
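Full-length His-tagged human GSK3β from Sf9 cells (4 nM) preincubated 30 min at 25 °C with inhibitor in Tris pH 7.5/MgCl2/BSA/DTT, then reacted 60 min at 25 °C with 13 μM substrate peptide and 25 μM ATP. ADP measured by ADP-Glo luminescence; IC50 from four-parameter logistic fit of % inhibition.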

The target of the next assay is T2, human DYRK1A (Homo sapiens, UniProt Q13627).
T2 construct: Recombinant full-length DYRK1A (expressed in E. Coli cells with an N-terminal GST tag); GST (N); purchased SignalChem D09-10G; host or cells: E. coli
Nature of the assay: DYRK1A enzyme assay (ADP-Glo). Format: biochemical. The procedure, abridged:
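GST-tagged full-length human DYRK1A (E. coli, 3 nM) preincubated 30 min at 25 °C with compound in 40 mM Tris pH 7.5, 20 mM MgCl2, 0.1 mg/ml BSA, 50 μM DTT, then reacted 60 min with 20 μM DYRKtide and 60 μM ATP. ADP-Glo luminescence; IC50 by four-parameter logistic fit.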

Where [1] appears, read: ADP-Glo, ATP 60 μM, read-out: DYRK1A IC50.

T1 sequence (P49841 whole entry): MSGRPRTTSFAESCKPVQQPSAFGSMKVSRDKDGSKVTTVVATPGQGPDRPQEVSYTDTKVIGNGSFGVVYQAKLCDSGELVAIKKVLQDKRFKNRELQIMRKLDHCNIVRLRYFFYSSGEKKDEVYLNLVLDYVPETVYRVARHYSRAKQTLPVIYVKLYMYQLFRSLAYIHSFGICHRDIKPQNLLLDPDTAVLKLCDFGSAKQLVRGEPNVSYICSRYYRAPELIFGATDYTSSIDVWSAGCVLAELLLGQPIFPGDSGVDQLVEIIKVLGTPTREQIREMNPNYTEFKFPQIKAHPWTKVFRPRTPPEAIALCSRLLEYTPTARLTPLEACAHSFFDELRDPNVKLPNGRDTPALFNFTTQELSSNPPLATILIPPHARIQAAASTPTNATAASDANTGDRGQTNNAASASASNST

Turning to `CN(C1=N/C(=C\c2ccc3[nH]ccc3c2)C(=O)N1)c1ccc2ncsc2c1` [Example 87, (Z)-5-((1H-indol-5-yl)methylene)-2-(benzo[d]thiazol-6-yl(methyl)amino)-3,5-dihydro-4H-imidazol-4-one], the concentration for half-maximal inhibition (IC50) at human GSK3 beta and on human DYRK1A (setting [1]) was above 10 µM in each case.
Turning to `Cc1nc2ccc(NC3=N/C(=C\c4ccc5ncsc5c4)C(=O)N3)cc2s1` [Example 90, (Z)-5-(benzo[d]thiazol-6-ylmethylene)-2-((2-methylbenzo[d]thiazol-6-yl)amino)-3,5-dihydro-4H-imidazol-4-one], the figures for the IC50 on human GSK3 beta and at human DYRK1A (setting [1]) were above 10 µM and below 0.1 µM, respectively.
As for `CN(C1=N/C(=C\c2ccc3ncccc3c2)C(=O)N1)c1ccc2ncsc2c1` [Example 85, (Z)-2-(benzo[d]thiazol-6-yl(methyl)amino)-5-(quinolin-6-ylmethylene)-3,5-dihydro-4H-imidazol-4-one], the values for the IC50 on human GSK3 beta and on human DYRK1A (setting [1]) were 1 to 10 µM and 0.1 to 1 µM, respectively.
Take `CC(=O)N(C1=N/C(=C\c2ccc3c(c2)OCO3)C(=O)N1)c1ccccc1` [Example 5, (Z)—N-(4-(benzo[d][1,3]dioxol-5-ylmethylene)-5-oxo-4,5-dihydro-1H-imidazol-2-yl)-N-phenylacetamide]: at human DYRK1A, the IC50 (in general, the concentration at which inhibition is half-maximal) is below 0.1 µM.
For `O=C1NC(N(Cc2ccccc2)c2ccc3ncsc3c2)=N/C1=C\c1ccc2ncsc2c1` [Example 99, (Z)-2-(benzo[d]thiazol-6-yl(benzyl)amino)-5-(benzo[d]thiazol-6-ylmethylene)-3,5-dihydro-4H-imidazol-4-one], the results for the IC50 at human GSK3 beta and on human DYRK1A (setting [1]) were above 10 µM and 0.1 to 1 µM, respectively.
For the compound `CCN(C1=N/C(=C\c2ccc3c(c2)OCO3)C(=O)N1)c1ccccc1` [Example 4, (Z)-5-(benzo[d][1,3]dioxol-5-ylmethylene)-2-(ethyl(phenyl)amino)-3,5-dihydro-4H-imidazol-4-one], at human DYRK1A (setting [1]), the IC50 was 0.1 to 1 µM.
For the compound `O=C1NC(Nc2ccc3sccc3c2)=N/C1=C\c1ccc2ncsc2c1` [Example 101, (Z)-2-(benzo[b]thiophen-5-ylamino)-5-(benzo[d]thiazol-6-ylmethylene)-3,5-dihydro-4H-imidazol-4-one], on human GSK3 beta, the IC50 was above 10 µM.
Same read-out and setting: the value for `O=C1NC(Nc2ccc3ncsc3c2)=N/C1=C\c1ccc2nccnc2c1` [Example 94, (Z)-2-(benzo[d]thiazol-6-ylamino)-5-(quinoxalin-6-ylmethylene)-3,5-dihydro-4H-imidazol-4-one] was above 10 µM.
Consider `Nc1ccc(NC2=N/C(=C\c3ccc4ncsc4c3)C(=O)N2)cc1` [Example 98, (Z)-2-((4-aminophenyl)amino)-5-(benzo[d]thiazol-6-ylmethylene)-3,5-dihydro-4H-imidazol-4-one], for which the IC50 at human GSK3 beta was 0.1 to 1 µM.
`O=C1NC(Nc2ccc3ncsc3c2)=N/C1=C\c1cncs1` [Example 92, (Z)-2-(benzo[d]thiazol-6-ylamino)-5-(thiazol-5-ylmethylene)-3,5-dihydro-4H-imidazol-4-one]: the IC50 at human GSK3 beta and on human DYRK1A (setting [1]) was 0.1 to 1 µM each time.
Take `CC(=O)N(C1=N/C(=C\c2ccc3ncsc3c2)C(=O)N1)c1ccc2ncsc2c1` [Example 91, (Z)—N-(benzo[d]thiazol-6-yl)-N-(4-(benzo[d]thiazol-6-ylmethylene)-5-oxo-4,5-dihydro-1H-imidazol-2-yl)acetamide]: the IC50 at human GSK3 beta was above 10 µM; on human DYRK1A (setting [1]) it was below 0.1 µM.
As for `COCCN(C1=N/C(=C\c2ccc3ncsc3c2)C(=O)N1)c1ccc2ncsc2c1` [Example 89, (Z)-2-(benzo[d]thiazol-6-yl(2-methoxyethyl)amino)-5-(benzo[d]thiazol-6-ylmethylene)-3,5-dihydro-4H-imidazol-4-one], the values for the IC50 at human GSK3 beta and on human DYRK1A (setting [1]) were 1 to 10 µM and 0.1 to 1 µM, respectively.
Consider `O=C1NC(Nc2ccc3ncsc3c2)=N/C1=C\c1ccc2cn[nH]c2c1` [Example 95, (Z)-5-((1H-indazol-6-yl)methylene)-2-(benzo[d]thiazol-6-ylamino)-3,5-dihydro-4H-imidazol-4-one], for which the IC50 on human GSK3 beta and at human DYRK1A (setting [1]) was above 10 µM in each case.
With `Cn1cnc2ccc(NC3=N/C(=C\c4ccc5ncsc5c4)C(=O)N3)cc21` [Example 93, (Z)-5-(benzo[d]thiazol-6-ylmethylene)-2-((1-methyl-1H-benzo[d]imidazol-6-yl)amino)-3,5-dihydro-4H-imidazol-4-one], the IC50 is 0.1 to 1 µM at human GSK3 beta and below 0.1 µM at human DYRK1A (setting [1]).
For the compound `CC(C)Nc1nc2ccc(NC3=N/C(=C\c4ccc5ncsc5c4)C(=O)N3)cc2s1` [Example 100, (Z)-5-(benzo[d]thiazol-6-ylmethylene)-2-((2-(isopropylamino)benzo[d]thiazol-6-yl)amino)-3,5-dihydro-4H-imidazol-4-one], the IC50 on human GSK3 beta and on human DYRK1A (setting [1]) was 0.1 to 1 µM each time.
Regarding `O=C1NC(Nc2ccc3nc[nH]c3c2)=N/C1=C\c1ccc2ncsc2c1` [Example 97, (Z)-2-((1H-benzo[d]imidazol-6-yl)amino)-5-(benzo[d]thiazol-6-ylmethylene)-3,5-dihydro-4H-imidazol-4-one], the IC50 on human GSK3 beta is 1 to 10 µM.
Consider `O=C1NC(=S)N/C1=C\c1ccc2sccc2c1` [Example 96, (Z)-5-(benzo[b]thiophen-5-ylmethylene)-2-thioxoimidazolidin-4-one], for which the IC50 at human GSK3 beta was 1 to 10 µM; on human DYRK1A (setting [1]), above 10 µM.
Regarding `CN1C(=O)/C(=C/c2ccc3ncsc3c2)N=C1Nc1ccc2ncsc2c1` [Example 88, (Z)-2-(benzo[d]thiazol-6-ylamino)-5-(benzo[d]thiazol-6-ylmethylene)-3-methyl-3,5-dihydro-4H-imidazol-4-one], the IC50 at human GSK3 beta is above 10 µM; on human DYRK1A (setting [1]), below 0.1 µM.
For `CN(C1=N/C(=C\c2ccc3ncsc3c2)C(=O)N1)c1ccc2c(c1)ncn2C` [Example 86, (Z)-5-(benzo[d]thiazol-6-ylmethylene)-2-(methyl(1-methyl-1H-benzo[d]imidazol-5-yl)amino)-3,5-dihydro-4H-imidazol-4-one], in that order: 1 to 10 µM and 1 to 10 µM.
